Assay results from publication PMC10855902 (International Journal of Molecular Sciences, 2024).

Tested on: anti-EGF rabbit polyclonal antibodies (Abcam 9695)
Assay: Dot blot of cellulose-immobilized EGF decapeptides with anti-EGF polyclonal antibodies;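 on Intensity (Staining Value): higher gray value means stronger antibody binding with above 120 very strong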
Type: binding
Settings: for Intensity (ability to interact with polyclonal antibodies) / interaction with polyclonal anti-EGF antibodies (in words): peptide on cellulose matrix; for Intensity (ability to interact with polyclonal antibodies): antibody 1:1000, 1 h room temperature; for Intensity (Staining Value): scanned spot, 256 gray scale (ImageJ)
Procedure: Dot blot reactions were performed using primary anti-EGF rabbit polyclonal antibodies (Abcam 9695) (Cambridge, UK) and secondary goat anti-rabbit antibodies conjugated with HRP (Abcam 205718). The procedure for using the dot blot method to analyze peptides immobilized on a cellulose matrix through a triazine linker was optimized in a previous study by the authors and ensures the elimination of non-specific impacts.
The solution was then removed, and the membranes were treated overnight at room temperature with blocking buffer (3% BSA in PBS, 40 mL, pH 7.4). The cellulose sheets were then washed with PBS buffer (40 mL, 5 min, pH 7.4). […] The membranes were then washed with Tween-80 solution in PBS (0.4%, 40 mL, 2 × 5 min) and PBS (40 mL, 5 min). Goat Anti-Rabbit IgG antibodies were conjugated with HRP (Abcam 205718, 20 μL) diluted 1:1000 in 1% BSA in PBS (20 mL, pH 7.4) and then incubated with cellulose sheets for 30 min at room temperature. The membranes were then washed with Tween-80 solution in PBS (0.4%, 40 mL, 2 × 5 min) and PBS (40 mL, 5 min). Visualization of the reactions was performed using 4-chloro-1-naphtol (Sigma–Aldrich). The cellulose sheets were placed into 0.15 mg/mL solution of 4-chloro-1-naphtol in MeOH:PBS (1:5, 15 mL) with the addition of 7.5 μL of H2O2; reaction time was 30 min. The membranes were washed with distilled water, air-dried, and scanned. In places where immunological complexes developed, blue precipitate was observed. The applied dot blot test procedure ensures the elimination of non-specific interactions. Additionally, using the same SPOT synthesis procedure, a library of type IV collagen fragments was obtained. […] The gray levels of the immunological reactions were determined using ImageJ Version 1.53n7 (https://imagej.nih.gov/ij/index.html, accessed on 17 October 2021) computer imaging software.

| Substance | Intensity (ability to interact with polyclonal antibodies) | Intensity (Staining Value) | interaction with polyclonal anti-EGF antibodies (in words) |
| --- | --- | --- | --- |
| H-^1NSDSECPLSH^10-matrix [A1] | − ((−), where the color intensity value was <45) | 14.8 |  |
| H-^2SDSECPLSHD^11-matrix [A2] | − ((−), where the color intensity value was <45) | 22.3 |  |
| H-^3DSECPLSHDG^12-matrix [A3] | +/− (moderately strong (+/−), for which the color intensity value was in the range of 90–45) | 71.7 |  |
| H-^4SECPLSHDGY^13-matrix [A4] | +/− (moderately strong (+/−), for which the color intensity value was in the range of 90–45) | 55.2 |  |
| H-^5ECPLSHDGYC^14-matrix [A5] | +/− (moderately strong (+/−), for which the color intensity value was in the range of 90–45) |  |  |
| H-^6CPLSHDGYCL^15-matrix [A6] | +/− (moderately strong (+/−), for which the color intensity value was in the range of 90–45) |  |  |
| H-^7PLSHDGYCLH^16-matrix [A7] | +/− (moderately strong (+/−), for which the color intensity value was in the range of 90–45) | 62.2 |  |
| H-^8LSHDGYCLHD^17-matrix [A8] | +/− (moderately strong (+/−), for which the color intensity value was in the range of 90–45) | 59.3 |  |
| H-^9SHDGYCLHDG^18-matrix [A9] | +/− (moderately strong (+/−), for which the color intensity value was in the range of 90–45) | 63.8 |  |
| H-^10HDGYCLHDGV^19-matrix [A10] | + (strong (+), for which the staining intensity value was in the range of 120–90) | 91.3 |  |
| H-^11DGYCLHDGVC^20-matrix [A11] | + (strong (+), for which the staining intensity value was in the range of 120–90) | 90.5 |  |
| H-^12GYCLHDGVCM^21-matrix [A12] | + (strong (+), for which the staining intensity value was in the range of 120–90) | 92.4 |  |
| H-^13YCLHDGVCMY^22-matrix [A13] | + (strong (+), for which the staining intensity value was in the range of 120–90) | 93.0 |  |
| H-^14CLHDGVCMYI^23-matrix [A14] | − ((−), where the color intensity value was <45) | 31.6 | inactive |
| H-^15LHDGVCMYIE^24-matrix [A15] | − ((−), where the color intensity value was <45) | 41.6 | no affinity for antibodies |
| H-^16HDGVCMYIEA^25-matrix [A16] | − ((−), where the color intensity value was <45) | 44.8 | low affinity |
| H-^17DGVCMYIEAL^26-matrix [A17] | +/− (moderately strong (+/−), for which the color intensity value was in the range of 90–45) | 88.9 |  |
| H-^18GVCMYIEALD^27-matrix [A18] | + (strong (+), for which the staining intensity value was in the range of 120–90) | 116.0 |  |
| H-^19VCMYIEALDK^28-matrix [A19] | ++ (very strong (++), for which the staining intensity value was >120) | 128.0 |  |
| H-^20CMYIEALDKY^29-matrix [A20] | ++ (very strong (++), for which the staining intensity value was >120) | 132.8 |  |
| H-^21MYIEALDKYA^30-matrix [B1] | ++ (very strong (++), for which the staining intensity value was >120) | 130.3 |  |
| H-^22YIEALDKYAC^31-matrix [B2] | ++ (very strong (++), for which the staining intensity value was >120) | 122.4 |  |

| Substance | Intensity (ability to interact with polyclonal antibodies) | Intensity (Staining Value) | interaction with polyclonal anti-EGF antibodies (in words) |
| --- | --- | --- | --- |
| H-^23IEALDKYACN^32-matrix [B3] | +/− (moderately strong (+/−), for which the color intensity value was in the range of 90–45) | 63.8 | lower affinity for antibodies |
| H-^24EALDKYACNC^33-matrix [B4] | − ((−), where the color intensity value was <45) | 30.5 | no affinity for antibodies |
| H-^25ALDKYACNCV^34-matrix [B5] | − ((−), where the color intensity value was <45) | 29.6 |  |
| H-^26LDKYACNCVV^35-matrix [B6] | +/− (moderately strong (+/−), for which the color intensity value was in the range of 90–45) | 46.6 |  |
| H-^27DKYACNCVVG^36-matrix [B7] | +/− (moderately strong (+/−), for which the color intensity value was in the range of 90–45) | 55.3 |  |
| H-^28KYACNCVVGY^37-matrix [B8] | +/− (moderately strong (+/−), for which the color intensity value was in the range of 90–45) | 63.5 |  |
| H-^29YACNCVVGYI^38-matrix [B9] | + (strong (+), for which the staining intensity value was in the range of 120–90) | 91.1 |  |
| H-^30ACNCVVGYIG^39-matrix [B10] | +/− (moderately strong (+/−), for which the color intensity value was in the range of 90–45) | 58.5 |  |
| H-^31CNCVVGYIGE^40-matrix [B11] | +/− (moderately strong (+/−), for which the color intensity value was in the range of 90–45) | 60.3 |  |
| H-^32NCVVGYIGER^41-matrix [B12] | +/− (moderately strong (+/−), for which the color intensity value was in the range of 90–45) | 56.3 |  |
| H-^33CVVGYIGERC^42-matrix [B13] | +/− (moderately strong (+/−), for which the color intensity value was in the range of 90–45) | 65.7 |  |
| H-^34VVGYIGERCQ^43-matrix [B14] | +/− (moderately strong (+/−), for which the color intensity value was in the range of 90–45) | 69.4 |  |
| H-^35VGYIGERCQY^44-matrix [B15] | + (strong (+), for which the staining intensity value was in the range of 120–90) | 91.0 |  |
| H-^36GYIGERCQYR^45-matrix [B16] | + (strong (+), for which the staining intensity value was in the range of 120–90) | 98.0 |  |
| H-^37YIGERCQYRD^46-matrix [B17] | + (strong (+), for which the staining intensity value was in the range of 120–90) | 106.2 |  |
| H-^38IGERCQYRDL^47-matrix [B18] | +/− (moderately strong (+/−), for which the color intensity value was in the range of 90–45) | 76.1 |  |
| H-^39GERCQYRDLK^48-matrix [B19] | − ((−), where the color intensity value was <45) | 28.9 | do not exhibit the ability to interact with antibodies |
| H-^40ERCQYRDLKW^49-matrix [B20] |  |  | do not exhibit the ability to interact with antibodies |
| H-^41RCQYRDLKWW^50-matrix [C1] | + (strong (+), for which the staining intensity value was in the range of 120–90) | 91.5 | moderate binding to antibodies |
| H-^42CQYRDLKWWE^51-matrix [C2] | + (strong (+), for which the staining intensity value was in the range of 120–90) | 91.4 | moderate binding to antibodies |
| H-^43QYRDLKWWEL^52-matrix [C3] | + (strong (+), for which the staining intensity value was in the range of 120–90) | 99.4 | show interactions with polyclonal anti-EGF antibodies |
